The text below walks through data of US11945794B2, “Nuclear transport modulators and uses thereof” (Karyopharm Therapeutics Inc., priority 2013, dated 2024).

Assay [1] relates to XPO1 cargo proteins: p53, IκB, Foxo1A, PP2A, p21 and p27. Nature of the assay: XPO1 cargo localization assay in U2OS cells (immunofluorescence). The following applies: 500 nM, 4 to 24 hours. Type of assay: cell-based. How it is done: The fixed cells were analyzed by immunofluorescence (IF) for the nuclear localization of the following XPO1 cargo proteins: p53, IκB, Foxo1A, PP2A, p21 and p27. Nuclei were stained with DAPI. Images were taken at 20× magnification.

For the next assay, the system named is MOLT 4 xenograft. Description: MOLT 4 acute lymphoblastic leukemia xenograft model. Type of assay: in vivo, mouse. The following applies: 5 or 15 mg/kg PO daily, SCID mice, compared to vehicle. How it is done: MOLT 4 (CRL-1582) acute lymphoblastic leukemia cells were obtained from ATCC. These cells were grown in RPMI-1640 medium supplemented with 10% fetal bovine serum, 1% penicillin and streptomycin. Cells were sub-cultured by transferring floating cells to a new flask and trypsinizing adherent cells before subculturing at a ratio of 1:4. MOLT 4 cells were harvested by centrifugation and counted using a hemocytometer. Cells were resuspended in PBS at a concentration of 5×10^7 cells per mL. Cells were placed on ice, and then mixed with an equal volume of Matrigel™ (BD Biosciences CB-40234). This mixture was kept on ice and injected into the left flank of mice in a volume of 0.2 mL, equivalent to 5×10^6 cells per mouse. Thirty-two (32) SCID mice were inoculated subcutaneously in the left flank with 5×10^6 MOLT 4 cells. Treatment was initiated when the tumors reached a mean volume of 106.5 mm^3 (standard deviation±33.9 mm^3, CV 31.9%, range 43-181 mm^3). Mice were allocated to four (4) groups of eight (8) mice, […], such that mean tumor volume in each group was within the range of 102 to 111 mm^3. […] With the exception of doxorubicin (which was given IP), all compounds were given by oral gavage. […] Animal weights and conditions were recorded daily, and tumors were measured on Mondays, Wednesdays and Fridays.

A further assay deals with U87MG spheroids. Nature of the assay: Glioblastoma spheroid assay. The following applies: 1 μM, U87MG spheroids in Matrigel, compared with control. Type of assay: cell-based. How it is done:
(§1) Cells (U87MG and U251MG) were detached and re-suspended at 1×10^5 cells/mL. 5,000 cells were loaded into a hanging drop plate (3D Biomatrix Cat. No.: HDP1096) and incubated for 5 days (37° C.; 5% CO2) to form spheroids. 300 μL of Matrix Gel (Corning Matrigel Cat #354234; Lot #3330622) were plated per well in a 24-well plate and incubated for 30 minutes. Spheroids were removed from the hanging drop plate and seeded into the […]™ (1 spheroid per well). Spheroids were incubated for 15 minutes and then 460 μL media was added. […] The plates were analyzed at several time points using 40× and 20× phase microscopes, and photos of the spheroids were taken.

A further assay deals with U251MG spheroids. Description: Glioblastoma spheroid assay. The following applies: 1 μM, U251MG spheroids in Matrigel, compared with control. Type of assay: cell-based. How it is done:
as §1

The test system of a further assay is Z-138 xenograft. Description: Z-138 mantle cell lymphoma xenograft model. Type of assay: in vivo, mouse. How it is done: Z-138 (ATCC #CRL-3001) mantle cell lymphoma cells were obtained from ATCC. These cells were grown in IMEM medium supplemented with 10% horse serum, 1% penicillin and streptomycin, and 2 mM L-glutamine. Cells were sub-cultured by dilution at a ratio of 1:5 to 1:10. Z-138 cells were harvested by centrifugation and counted using a hemocytometer. Cells were resuspended in PBS at a concentration of 2×10^8 cells per mL. Cells were placed on ice and mixed with an equal volume of Matrigel (BD Biosciences CB-40234). This mixture was kept on ice and injected into the left flank of mice in a volume of 0.2 mL, equivalent to 2×10^7 cells per mouse. Thirty-two (32) CB-17 SCID mice were inoculated subcutaneously in the left flank with 2×10^7 Z-138 cells. Treatment was initiated when the tumors reached a mean volume of 125.2 mm^3. Mice were allocated to four (4) groups of eight (8) mice such that mean tumor volume in each group was within the range of 106.5 to 138.8 mm^3. […] Animal weights and conditions were recorded daily, and tumors were measured on Mondays, Wednesdays and Fridays.

The subject of another assay is HCT116.1. Nature of the assay: MTT assay panel. Type of assay: cell-based. The following applies: HCT116.1 cells, 72 hours. How it is done: (§2) Compound 124 was further tested against a panel of selected solid and hematological cancer cell lines and selected normal cell lines in an MTT assay. Briefly, the various cell lines above were plated at different densities on day 1. […] Cell Titer AQueous One was added to each well, and the plates were read in a plate reader at OD 495.

Another assay deals with SW-403. Description: MTT assay panel. Type of assay: cell-based. The following applies: Homo sapiens; SW-403 cells, 72 hours. How it is done:
as §2

The subject of the next assay is LS-174T. Description: MTT assay panel. Type of assay: cell-based. The following applies: Homo sapiens, LS174T; LS-174T cells, 72 hours. How it is done:
as §2

The next assay relates to HEP3B. Nature of the assay: MTT assay panel. Type of assay: cell-based. The following applies: Homo sapiens; HEP3B cells, 72 hours. How it is done: as §2
The test system of the next assay is HPAF-II. Nature of the assay: MTT assay panel. The following applies: Homo sapiens; HPAF-II cells, 72 hours. Type of assay: cell-based. How it is done:
as §2

Another assay deals with PATU-8902. Nature of the assay: MTT assay panel. Type of assay: cell-based. The following applies: PATU-8902 cells, 72 hours. How it is done:
as §2

For the next assay, the system named is CAPAN-1. Nature of the assay: MTT assay panel. Type of assay: cell-based. The following applies: Homo sapiens; CAPAN-1 cells, 72 hours. How it is done: as §2
The test system of another assay is HCT-15. Description: MTT assay panel. Type of assay: cell-based. The following applies: Homo sapiens; HCT-15 cells, 72 hours. How it is done:
as §2

Another assay has as its system Colo-201. Nature of the assay: MTT assay panel. Type of assay: cell-based. The following applies: Homo sapiens; Colo-201 cells, 72 hours. How it is done: as §2
Another assay has as its system SHP-77. Nature of the assay: MTT assay panel. Type of assay: cell-based. The following applies: Homo sapiens, SHP77; SHP-77 cells, 72 hours. How it is done: as §2
Another assay concerns MDA-MB-361. Description: MTT assay panel. Type of assay: cell-based. The following applies: Homo sapiens; MDA-MB-361 cells, 72 hours. How it is done: as §2
The next assay relates to SKOV3. Nature of the assay: MTT assay panel. Type of assay: cell-based. The following applies: Homo sapiens, SK-OV-3; SKOV3 cells, 72 hours. How it is done: as §2
The target of the next assay is T1, CRM1 (Homo sapiens, UniProt O14980).
T1 construct: endogenous in cells; host or cells: U2OS cells stably expressing Rev-GFP
Description: Washout assay in U2OS Rev-GFP cells. Type of assay: cell-based. The following applies: 24 hour washout versus no washout. How it is done:
After 4 hours, one of the plates was fixed with PFA (no washout, condition A). […] A second plate was fixed with PFA after a 4 hour washout (4 hr washout, condition B) and a third plate was fixed with PFA after a 24 hour washout (24 h washout, condition C). Cells were counterstained with the nuclear dye DAPI.

Structures are written as SMILES.

T1 sequence (O14980 whole entry): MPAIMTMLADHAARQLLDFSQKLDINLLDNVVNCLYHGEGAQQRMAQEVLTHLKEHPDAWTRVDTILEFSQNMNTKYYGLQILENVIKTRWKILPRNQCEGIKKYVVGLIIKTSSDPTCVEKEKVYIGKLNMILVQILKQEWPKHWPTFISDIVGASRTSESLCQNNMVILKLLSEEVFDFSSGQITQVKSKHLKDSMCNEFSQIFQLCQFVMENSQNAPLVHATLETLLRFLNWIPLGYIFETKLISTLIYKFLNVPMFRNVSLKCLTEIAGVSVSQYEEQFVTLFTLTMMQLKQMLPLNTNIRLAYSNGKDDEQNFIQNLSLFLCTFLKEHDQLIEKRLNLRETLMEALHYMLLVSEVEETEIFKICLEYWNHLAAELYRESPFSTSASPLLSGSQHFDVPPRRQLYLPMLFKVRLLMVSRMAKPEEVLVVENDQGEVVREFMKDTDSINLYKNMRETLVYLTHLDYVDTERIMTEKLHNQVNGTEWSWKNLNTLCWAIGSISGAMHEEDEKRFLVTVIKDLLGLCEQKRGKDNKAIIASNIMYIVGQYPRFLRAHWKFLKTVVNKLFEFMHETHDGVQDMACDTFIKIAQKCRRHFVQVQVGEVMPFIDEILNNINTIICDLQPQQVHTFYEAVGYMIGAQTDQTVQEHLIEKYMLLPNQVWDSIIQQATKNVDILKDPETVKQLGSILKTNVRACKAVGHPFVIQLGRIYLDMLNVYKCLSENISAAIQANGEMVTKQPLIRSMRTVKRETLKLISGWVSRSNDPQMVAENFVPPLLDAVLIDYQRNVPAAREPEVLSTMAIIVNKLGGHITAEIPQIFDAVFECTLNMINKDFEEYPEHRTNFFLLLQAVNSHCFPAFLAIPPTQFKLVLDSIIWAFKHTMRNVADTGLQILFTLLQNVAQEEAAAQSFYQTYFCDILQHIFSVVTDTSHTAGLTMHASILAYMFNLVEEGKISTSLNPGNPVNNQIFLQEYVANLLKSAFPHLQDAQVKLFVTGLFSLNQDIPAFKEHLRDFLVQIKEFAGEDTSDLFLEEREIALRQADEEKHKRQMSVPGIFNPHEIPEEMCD

For the compound `NC(=O)/C(=C/n1cnc(-c2cc(C(F)(F)F)cc(C(F)(F)F)c2)n1)c1cncnc1` [Compound 124, (E)-3-(3-(3,5-bis(trifluoromethyl)phenyl)-1H-1,2,4-triazol-1-yl)-2-(pyrimidin-5-yl)acrylamide], the “nuclear localization of XPO1 cargo proteins” value in assay [1] is “increased or complete nuclear localization of XPO1 cargoes”. For the same compound, the mean tumor volume entry is “mean tumor volume was reduced” in the assay on MOLT 4 xenograft and “mean tumor volume was reduced” in the assay on Z-138 xenograft (5 or 15 mg/kg PO daily, CB-17 SCID mice, compared to vehicle). The spheroid cell growth entry is on record as “significant reduction in cell growth” with U87MG spheroids and “shrinking of the spheroid with complete elimination of any cell growth out of the sphere” in the assay with U251MG spheroids. Moreover, in the assay on Z-138 xenograft (15 mg/kg PO daily, versus cyclophosphamide), the “mean tumor volume compared with standard of care” value was “compared favorably”. Moreover, the IC50 with HCT116.1 was 200 nM; in the assay with SW-403 it was 910 nM; in the assay on LS-174T, 10000 nM; in the assay with HEP3B it was 300 nM; with HPAF-II it was > 10000 nM; in the assay on PATU-8902, 410 nM. Besides, the IC50 in the assay with CAPAN-1 was 20 nM; in the assay on HCT-15 it was 460 nM; in the assay on Colo-201 it was > 10000 nM; with SHP-77, 410 nM; with MDA-MB-361, > 10000 nM; in the assay on SKOV3 it was > 10000 nM. The “decrease in effectiveness after a 24 hour washout” value on CRM1 is 6 fold.
